{
  "source": "patent US9326511B2",
  "about": "“Methods of inhibiting microbial biofilms” (priority 2008, dated 2016)",
  "key": {"[1]": {"system": "Staphylococcus aureus BAA-44 (multi-drug resistant MRSA)", "assay": "MIC and MBC of Compound 10 in the absence of light (NCCLS-based broth dilution)", "format": "cell-based", "conditions": "S. aureus BAA-44, subculture on nutrient agar, further 24 hours", "description": "The minimum inhibitory concentration (MIC) for an antimicrobial agent against a specific microorganism is defined as the minimum concentration of an antibacterial agent where no apparent visible growth of the organism is observed (FDA definition of Minimum Inhibitory Concentration). MIC's are typically determined using concentrations derived traditionally from serial twofold dilutions (National Committee for Clinical Laboratory Standards (NCCLS) Handbook M7-A5: “Methods for Dilution Antimicrobial Susceptibility Tests for Bacteria that Grow Aerobically; Approved Standard—5th Edition” Volume 20 Number 2. January 2000). The MIC for Compound 10 in the absence of light was investigated, using a protocol based on the MIC protocol produced by the NCCLS (National Committee for Clinical Laboratory Standards (NCCLS) Handbook M7-A5, supra).\nStaphylococcus aureus BAA-44, a multi-drug resistant Methicillin Resistant Staphylococcus aureus (MRSA) strain obtained from the ATCC catalogue, was used in this study. The following concentrations of Compound 10 were investigated: 0.764; 0.382; 0.191; 0.0955; 0.0478; 0.0239, 0.0119, 0.00597, 0.00298, 0.00149, 0.00075 & 0.00037 μg/mL. Stock solutions were made up in distilled water and serial dilutions undertaken of this to produce the required concentrations immediately prior to use […]"}, "[2]": {"assay": "Acute dermal toxicity test (OECD 402)", "format": "in vivo", "conditions": "3.2 mM in a topical formulation", "protocol": "Compound 10 was tested at 3.2 mM in a topical formulation in a standard acute dermal toxicity test to determine if any clinical or histological toxicity for the compound could be detected.\nThe acute toxicity protocol was based on OECD Guidelines for the testing of chemicals/Section 4—Health Effects Test Number 402: Acute Dermal Toxicity."}, "[3]": {"system": "normal human epidermal keratinocytes (NHEK)", "assay": "Toxicity against human skin cells, MTT-assay", "format": "cell-based", "conditions": "5 min, 1 h, 4 h incubation, 0.01-10 μM, then 24 h in the dark", "protocol": "NHEK were incubated with different concentrations of Compound 10 for 5 min, 1 h and 4 h (0 μM, 0.01 μM, 0.1 μM, 1.0 μM, 10 μM). Cells were then incubated for 24 h in the dark. Toxicity was tested by standard MTT-assay. Cell viability was normalised to one, which means, the values of control cells were normalised to one. Red dotted line: 5 min incubation; black dotted: 1 h incubation; blue dotted: 4 h incubation only; (n=3, mean±SD).\nTest compounds were screened for toxicity against cultured human skin cells using normal human epidermal keratinocytes (NHEK) and normal human dermal fibroblasts (NHDF), purchased from CellSystems Biotechnologie GmbH, Germany.\nThe NHEK and NHDF cells were used between passages 3 and 10. The cells were seeded with 7.5 and/or 15×10^4 cells/well (microtitre plate) and were allowed to attach overnight in an incubator (37° C., 5% CO2). After incubation with different concentrations of the selected photosensitisers for various times, the cells were incubated for 24 hours in the dark.\nToxicity was tested by standard MTT-assay (Mossman et al., 1983 J. Immunological Methods 65: 55-63). MTT is an indicator of metabolically active cells. Dependent on enzyme activity in mitochondria a colour reaction can be visualised, which can be measured by ELISA reader (540 nm). […]"}, "[4]": {"system": "range of S. aureus strains including MSSA, healthcare-associated and community-associated MRSA", "conditions": "previously shown (Love et al. 2008); cited from earlier work"}, "[5]": {"system": "Enterococcus faecium", "assay": "MIC (IsoSensitest broth) and MBC (subculture onto Columbia blood agar), reference strains and clinical isolates", "format": "cell-based", "conditions": "dark, 24 hours", "protocol": "(§1) The Minimum Inhibitory Concentrations (MIC's) for Compound 10, over a range of reference strains and clinical isolates, were determined using IsoSensitest® broth and Minimum Bactericidal concentrations (MBC's) determined by subculture onto Columbia blood agar.\n(§2) • 1. A 5 mg/ml stock solution of Compound 10 was made up in water • 2. A series of dilutions were undertaken to produce a range of concentrations between 32-0.001 mg/L • 3. The test microorganisms were grown up overnight in IsoSensitest® broth • 4. The cultures were then diluted with fresh broth to a final concentration of 10^4 organisms/ml and placed on a shaker for 90 minutes at 37° C. • 5. 90 μl of the broth culture containing the microorganisms were transferred to each of 12 wells in a row in a microtitre tray and repeated in a control tray—four organisms per tray. • 6. 90 μL of the appropriate Compound 10 dilution was then added to each well containing organisms to give a final dilution series from 16 mg/L to 0.0005 mg/L • 7. The solutions were mixed well and incubated in the dark for 24 hours • 8. […] The MBC values were recorded after overnight incubation of the subcultures. • 10. Controls of uninoculated broth and broth plus inoculum were undertaken for each organism in each tray Results"}, "[6]": {"system": "Enterococcus faecalis", "assay": "MIC (IsoSensitest broth) and MBC (subculture onto Columbia blood agar), reference strains and clinical isolates", "format": "cell-based", "conditions": "dark, 24 hours", "protocol": "as §1, §2"}},
  "note": "Marks after values point to notes of the source that are not given here.",
  "data": [
    {"smiles": "C[N+](C)(C)CCCOc1ccc(-c2c3nc(cc4ccc([nH]4)c(-c4ccc(OCCC[N+](C)(C)C)cc4)c4nc(cc5ccc2[nH]5)C=C4)C=C3)cc1.[Cl-].[Cl-]", "note": "[Compound 10, 5,15-bis-[4-(3-Trimethylammonio-propyloxy)-phenyl]-porphyrin dichloride]", "values": [
      {"measurement": "MBC", "setting": "[1]", "value": "0.382* μg/mL"},
      {"measurement": "Acute dermal toxicity (clinical and histological)", "setting": "[2]", "value": "does not result in any acute toxic effect"},
      {"measurement": "Innate toxicity (cell viability, MTT)", "setting": "[3]", "value": "does not demonstrate an innate toxicity"},
      {"measurement": "MBC50", "setting": "[4]", "value": 1, "unit": "µg/mL"},
      {"measurement": "MIC50", "setting": "[4]", "value": 1, "unit": "µg/mL"},
      {"measurement": "Cpd 10 MIC", "setting": "[5]; strain E5 (clinical isolate)", "value": 0.5, "unit": "µg/mL"},
      {"measurement": "Cpd 10 MIC", "setting": "[5]; strain E19 (clinical isolate)", "value": 0.5, "unit": "µg/mL"},
      {"measurement": "Cpd 10 MIC", "setting": "[5]; strain E44 (clinical isolate)", "value": 0.5, "unit": "µg/mL"},
      {"measurement": "Cpd 10 MIC", "setting": "[6]; strain E4 (clinical isolate)", "value": 0.5, "unit": "µg/mL"},
      {"measurement": "Cpd 10 MIC", "setting": "[6]; strain E10 (clinical isolate)", "value": 0.5, "unit": "µg/mL"},
      {"measurement": "Cpd 10 MIC", "setting": "[6]; strain E37 (clinical isolate)", "value": 0.5, "unit": "µg/mL"}
    ]}
  ]
}
